Measured values reported in patent US20190308988A1, “OPIOID RECEPTOR ANTAGONIST PRODRUGS” (Nirsum Laboratories, Inc., priority 2017, published 2019).
In brackets after ≈: the same amount, converted by molar mass.

Tests used:
DOR = target: T1, DOR (Homo sapiens, UniProt P41143); experiment: Opioid receptor binding assay, DOR ([3H]-DADLE)
T1 construct: expressed in transfected cells
Procedure: (§1) Receptor binding assays were performed to assess the ability of compounds to inhibit binding to radiolabeled ligand.
(§2) The stable cell lines were established and prepared cell membrane obtained using these cell lines.
(§3) 1) Transfer 1 μl of specified concentration compound to assay plate according to the plate map for nonspecific binding. Transfer 1 μl of DMSO to assay plate according to plate map for total binding. 2) Follow the plate map. Dispense 99 μl of membrane stocks into the plate. 3) Add 100 μl of radio ligand. 4) Seal the plates. Incubate at RT for 1 hour. 5) Soak the Unifilter-96 GF/C filter plates with 50 μl of 0.3% PEI per well for at least 0.5 hour at room temperature. 6) When binding assays are completed, filter the reaction mixture through GF/C plates using Perkin Elmer Filtermate Harvester, and then wash each plate for 4 times with cold wash buffer. 7) Dry the filter plates for 1 hour at 50 degrees. 8) After drying, seal the bottom of the filter plate wells using Perkin Elmer Unifilter-96 backing seal tape. Add 50 μl of Perkin Elmer Microscint 20 cocktail. Seal top of filter plates with Perkin Elmer TopSeal-A sealing film. 9) Count ^3H trapped on filter using Perkin Elmer MicroBeta2 Reader second day. 10) Analyze the data with GraphPad Prism 5. Calculate the “Inhibition [% Control]” using the equation: % Inh=(1−Background subtracted Assay value/Background subtracted HC value)*100.

[1] = Rat pharmacokinetic studies, intramuscular administration; assay type: in vivo, male Sprague Dawley Rats; conditions: male, Sprague Dawley, rat, plasma, im; for AUC(0-inf): read-out: AUC0-inf (ng · h/mL) prodrug; for half-life: read-out: Half-life t1/2 (hour) prodrug (converted)
Procedure: The purpose of this study is to determine the pharmacokinetics of test compounds in plasma, following intramuscular administration to male Sprague Dawley Rats (n=3, unless otherwise specified).
The dose formulation of 400 mg base equivalents/ml in sesame oil+1% benzyl alcohol (unless otherwise specified) was administered by intramuscular injection. The dose volume was determined by the animals' body weight determined on the morning of dosing day.
Each collected blood sample was centrifuged for 4 minutes at 4° C. and 10000 rpm for plasma collection. Plasma was collected and transferred into a pre-labeled PP tube in dry ice at each time point and precipitated immediately using ACN at a ratio of 1:4 (plasma:ACN). Centrifuged again (10 minutes, 12000 rpm) and obtain the supernatant.
LC-MS/MS methods for the quantitative determination of test compound in biological matrix were developed. […] The sample analysis was performed concurrently with a set of calibration standards and two sets of QC samples using the LC-MS/MS method.
Plasma concentration versus time data was analyzed by non-compartmental approaches using the Phoenix WinNonlin 6.3 software program. Cmax, Tmax, T1/2, AUC(0-t), AUC(0-inf), MRT(0-t), MRT(0-inf) and graphs of plasma concentration versus time profile were prepared.

MOR = target: T2, MOR (Homo sapiens, UniProt P35372); experiment: Opioid receptor binding assay, MOR ([3H]DAMGO)
T2 construct: expressed in transfected cells
T2 sequence (P35372 whole entry): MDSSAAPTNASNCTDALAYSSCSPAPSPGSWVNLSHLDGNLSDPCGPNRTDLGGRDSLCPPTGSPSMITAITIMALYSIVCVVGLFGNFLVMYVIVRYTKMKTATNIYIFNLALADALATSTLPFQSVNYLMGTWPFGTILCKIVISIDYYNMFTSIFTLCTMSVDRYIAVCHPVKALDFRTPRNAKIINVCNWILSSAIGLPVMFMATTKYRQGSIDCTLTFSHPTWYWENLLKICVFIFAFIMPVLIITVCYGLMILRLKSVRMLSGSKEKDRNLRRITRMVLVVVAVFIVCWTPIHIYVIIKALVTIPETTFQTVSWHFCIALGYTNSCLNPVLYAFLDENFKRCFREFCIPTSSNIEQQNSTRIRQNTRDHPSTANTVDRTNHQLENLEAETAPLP
Procedure: as §1, §2, §3

[2] = Liver S9 fraction stability, monkey; assay type: in vitro ADME, cynomolgus monkey; conditions: monkey liver S9 1.0 mg/ml, 2 μM, 37° C.
Procedure: (§4) Liver S9 fraction stability determination of the test compounds in dog, cynomolgus monkey and human is performed using HPLC-MS. Test compound (2 μM, 0.1% DMSO, 1% Methanol final concentration) was assessed for stability in a 50 μl phosphate buffer containing 1.0 mg/ml S9 protein from each of the three species and 5 mM D-saccharic acid-1, 4-lactone. Samples were incubated at 37° C. for 60 minutes and the % compound remaining was assessed.

[3] = Liver S9 fraction stability, human; assay type: in vitro ADME; conditions: human liver S9 1.0 mg/ml, 2 μM, 37° C.
Procedure: as §4

[4] = Solubility determination in oil (Table 10); conditions: thermodynamic from solid; for solubility at 24 h: 25 °C, Heating Temp. 60 °C, Obs. Temp. 25 °C; for solubility / solubility thermodynamic: 40 °C, Heating Temp. 40 °C, Obs. Temp. 40 °C; for solubility thermodynamic: water, Equilibrium solubility: Water
Procedure: A known amount of test substance (˜40 mg) was weighed into the vial, 100 μL of oil was added and heated to 60° C. and then system was slurried to reach equilibrium. […] Extra oil was added into the vial once compound precipitated out and then the system was re-equilibrated at 1000 rpm at room temperature (25° C.). Final concentration was determined by HPLC method as described below in Table 6a and 6b.

[5] = Liver S9 fraction stability, dog; assay type: in vitro ADME; conditions: dog liver S9 1.0 mg/ml, 2 μM, 37° C.
Procedure: as §4

KOR = target: T3, KOR (Homo sapiens, UniProt P41145); experiment: Opioid receptor binding assay, KOR ([3H]Diprenorphine)
T3 construct: expressed in transfected cells
T3 sequence (P41145 whole entry): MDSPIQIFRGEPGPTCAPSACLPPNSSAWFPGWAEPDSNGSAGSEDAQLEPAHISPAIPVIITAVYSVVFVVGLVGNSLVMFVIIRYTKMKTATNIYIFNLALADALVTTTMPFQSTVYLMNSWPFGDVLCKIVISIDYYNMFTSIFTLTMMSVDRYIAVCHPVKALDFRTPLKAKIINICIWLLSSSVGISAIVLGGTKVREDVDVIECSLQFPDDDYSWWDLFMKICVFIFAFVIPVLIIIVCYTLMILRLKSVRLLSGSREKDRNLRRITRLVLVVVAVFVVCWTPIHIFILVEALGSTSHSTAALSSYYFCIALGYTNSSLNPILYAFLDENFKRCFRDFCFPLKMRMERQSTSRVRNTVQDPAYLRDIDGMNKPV
Procedure: as §1, §2, §3

[6] = Dog pharmacokinetic studies, deep intramuscular administration; assay type: in vivo, Beagle dogs; conditions: Beagle, dog, plasma, im; for AUC(0-inf): read-out: AUC0-inf (ng · h/mL) prodrug; for half-life: read-out: Half-life t1/2 (hour) prodrug (converted)
How it was run: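 Beagle dogs (n=3) dosed by deep intramuscular injection into quadriceps or biceps femoris, formulation 400 mg base equivalents/mL in sesame oil + 1% benzyl alcohol, under propofol sedation. Plasma quantified by LC-MS/MS; non-compartmental analysis for Cmax, Tmax, T1/2, AUC and MRT.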

[7] = 80 mg/kg, Sesame oil + 1% Benzyl Alcohol
[8] = 123 mg/kg, Sesame oil + 1% Benzyl Alcohol
[9] = 165 mg/kg, Sesame oil + 1% Benzyl Alcohol
[10] = oil or lipid, Approximate Solubility in Excipient: Cottonseed oil
[11] = oil or lipid, Approximate Solubility in Excipient: Sesame oil
[12] = 30 mg/kg, IM 30 mg/kg, Sesame oil + 1% Benzyl Alcohol
[13] = 48 mg/kg, IM 48 mg/kg (deep), Sesame oil + 1% Benzyl Alcohol
[14] = 48 mg/kg, IM 48 mg/kg (shallow), Sesame oil + 1% Benzyl Alcohol
[15] = 96 mg/kg, IM 96 mg/kg, Sesame oil + 1% Benzyl Alcohol
[16] = 80 mg/kg, Cottonseed + 1% Benzyl Alcohol
[17] = 123 mg/kg, Cottonseed oil + 1% Benzyl Alcohol
[18] = 165 mg/kg, Cottonseed oil + 1% Benzyl Alcohol
[19] = 48 mg/kg, IM 48 mg/kg (deep), Cottonseed + 1% Benzyl Alcohol
[20] = 48 mg/kg, IM 48 mg/kg (shallow), Cottonseed + 1% Benzyl Alcohol

T1 sequence (P41143 whole entry): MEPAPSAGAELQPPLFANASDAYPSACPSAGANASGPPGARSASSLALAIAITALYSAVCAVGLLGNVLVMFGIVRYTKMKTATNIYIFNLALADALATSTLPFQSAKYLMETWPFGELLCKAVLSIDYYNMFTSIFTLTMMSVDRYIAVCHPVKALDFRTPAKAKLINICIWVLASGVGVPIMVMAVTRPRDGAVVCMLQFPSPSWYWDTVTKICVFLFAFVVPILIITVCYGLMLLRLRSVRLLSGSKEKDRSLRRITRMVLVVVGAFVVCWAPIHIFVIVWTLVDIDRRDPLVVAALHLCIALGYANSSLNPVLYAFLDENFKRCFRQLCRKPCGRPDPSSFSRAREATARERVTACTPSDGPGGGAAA

With `C=C1CC[C@@]2(O)C3Cc4ccc(OC(=O)OCCCCCCCCCCCC)c5c4[C@@]2(CCN3CC2CC2)[C@H]1O5` [Compound 6, (4aS,7aS,12bS)-3-(cyclopropylmethyl)-4a-hydroxy-7-methylene-2,3,4,4a,5,6,7,7a-octahydro-1H-4,12-methanobenzofuro[3,2-e]isoquinolin-9-yl dodecyl carbonate] as the compound, how does the IC50 (DOR) read?
Its IC50 is 500 nM.

And the AUC(0-inf) [1, 7]?
The AUC(0-inf) was 78.9 ng·h/mL.

What about the half-life [1, 7] of the same compound?
The half-life was 340 h.

What about the AUC(0-inf) [1, 8] of the same compound?
Its AUC(0-inf) is 620 ng·h/mL.

What about the half-life [1, 8] of the same compound?
The half-life was 213 h.

What about the AUC(0-inf) [1, 9] of the same compound?
The AUC(0-inf) was 637 ng·h/mL.

What about the half-life [1, 9] of the same compound?
The half-life was 204 h.

And the IC50 (MOR)?
The IC50 was 14.9 nM.

What about the “% remaining at 60 minutes, Monkey” value [2] of the same compound?
The value was 0%.

And the “% remaining at 60 minutes, Human” value [3]?
The value was 5.3%.

What about the solubility at 24 h [4, 10] of the same compound?
Its solubility at 24 h is over 397 mg/mL.

What about the solubility at 24 h [4, 11] of the same compound?
Its solubility at 24 h is over 386 mg/mL.

And the solubility [4, 10]?
The solubility was over 421 mg/mL.

And the solubility [4, 11]?
The solubility was over 403 mg/mL.

And the solubility ([4]; organic solvent or mixture, Approximate Solubility in Excipient: Ethanol)?
The solubility was 120 to 170 mg/mL (≈ 217 to 308 mM).

And the solubility thermodynamic [4]?
Its solubility thermodynamic is 0.002 mg/mL (≈ 0.00362 mM).

What about the “% remaining at 60 minutes, Dog” value [5] of the same compound?
The value was 17.1%.

What about the IC50 (KOR) of the same compound?
The IC50 was 51.1 nM.

And the AUC(0-inf) [6, 12]?
Its AUC(0-inf) is 398 ng·h/mL.

What about the half-life [6, 12] of the same compound?
The half-life was 95 h.

What about the AUC(0-inf) [6, 13] of the same compound?
Its AUC(0-inf) is 2190 ng·h/mL.

What about the half-life [6, 13] of the same compound?
Its half-life is 54 h.

What about the AUC(0-inf) [6, 14] of the same compound?
The AUC(0-inf) was 1020 ng·h/mL.

And the half-life [6, 14]?
The half-life was 135 h.

And the AUC(0-inf) [6, 15]?
The AUC(0-inf) was 1290 ng·h/mL.

What about the half-life [6, 15] of the same compound?
The half-life was 88 h.

What does the source list for `C=C1CC[C@@]2(O)C3Cc4ccc(OCOC(=O)OCCCCCCCCCCCC)c5c4[C@@]2(CCN3CC2CC2)[C@H]1O5` [Compound 24, (((4aS,7aS,12bS)-3-(cyclopropylmethyl)-4a-hydroxy-7-methylene-2,3,4,4a,5,6,7,7a-octahydro-1H-4,12-methanobenzofuro[3,2-e]isoquinolin-9-yl)oxy)methyl dodecyl carbonate]?
IC50 (DOR): 2120 nM; AUC(0-inf) [1, 16]: 147 ng·h/mL; half-life [1, 16]: 398 h; AUC(0-inf) [1, 17]: 547 ng·h/mL; half-life [1, 17]: 717 h; AUC(0-inf) [1, 18]: 453 ng·h/mL; half-life [1, 18]: 851 h; IC50 (MOR): 22.4 nM; % remaining at 60 minutes, Monkey [2]: 3%; % remaining at 60 minutes, Human [3]: 3.5%; solubility at 24 h [4, 10]: > 403 mg/mL; solubility at 24 h [4, 11]: 338 to 368 mg/mL (≈ 581 to 633 mM); solubility thermodynamic [4]: < 0.001 mg/mL; % remaining at 60 minutes, Dog [5]: 3.6%; IC50 (KOR): 37.5 nM; AUC(0-inf) [6, 19]: 613 ng·h/mL; half-life [6, 19]: 59.6 h; AUC(0-inf) [6, 20]: 526 ng·h/mL; half-life [6, 20]: 102 h
